# Experimental data: patent publication US6706663B2, “Herbicidal 3-heterocyclic substituted benzisothiazole and benzisoxazole compounds” (Wyeth, priority 2000, dated 2004)
# Experiments:
# [1] = system: SAGPY (Sagittaria pygmaea); assay: Flooded paddy, preemergence weed control; type: in vivo, L.; conditions: rated 3-4 weeks after treatment, 0-9 rating scale
# Procedure, shortened: (§1)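 Preemergence, flooded: propagules planted at 0.5 cm depth in silt loam, water level maintained at 1.5 to 3 cm over soil, containers kept on greenhouse benches. Activity scored 0-9 by eye relative to a control plant.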
# [2] = system: ECHCG (Echinochloa crus-galli); assay: Postemergence herbicidal evaluation; type: in vivo, (L.) Beau
# Procedure, shortened: (§2)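 Visual 0–9 injury scores versus control plants, covering stand, vigour, malformation, size, chlorosis and general appearance, taken four to five weeks post-spray and averaged over replicate tests. Plants were sprayed at roughly two weeks old and held on greenhouse benches.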
# [3] = system: ORYSAT (Rice, Tebonnet); assay: Preemergence herbicidal evaluation; type: in vivo, Oryza sativa, (L.) Tebonnet; conditions: preemergence, rated 4-5 weeks after treatment
# [4] = system: SETVI (Setaria viridis); assay: Postemergence herbicidal evaluation; type: in vivo, (L.) Beau
# Procedure, shortened: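 Ratings use a 0-9 visual scale covering stand, vigor, malformation, size, chlorosis and appearance versus a control, scored 4-5 weeks post-spray. Roughly two-week-old seedlings received about 0.0040-1.000 kg/ha active, applied in 50/50 acetone/water with 0.5% TWEEN 20. Multiple tests per compound were averaged.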
# [5] = system: IPOHE (Ipomoea hederacea); assay: Postemergence herbicidal evaluation; type: in vivo, (L.) Jacq.
# Procedure, shortened: as §2
# [6] = system: MOOVA (Monochoria vaginalis); assay: Flooded paddy, preemergence weed control; type: in vivo, Presl.; conditions: rated 3-4 weeks after treatment, 0-9 rating scale
# Procedure, shortened: as §1
# [7] = system: ABUTH (Abutilon theophrasti); assay: Postemergence herbicidal evaluation; type: in vivo, Medic.
# Procedure, shortened: as §2
# [8] = system: CYPIR (Cyperus iria); assay: Flooded paddy, preemergence weed control; type: in vivo; conditions: rated 3-4 weeks after treatment, 0-9 rating scale
# Procedure, shortened: as §1
# [9] = system: ZEAMX (Corn, Field); assay: Postemergence herbicidal evaluation; type: in vivo, Zea mays, L.
# Procedure, shortened: as §2
# [10] = system: ECHORC (Echinochloa oryzoides); assay: Flooded paddy, preemergence weed control; type: in vivo, Echinochloa oryzoides (Ard.) Fritsch.; conditions: rated 3-4 weeks after treatment, 0-9 rating scale
# Procedure, shortened: as §1
# [11] = system: GLXMAW (Soybean, Williams); assay: Postemergence herbicidal evaluation; type: in vivo, Glycine max, (L.) Merr. cv Williams
# Procedure, shortened: as §2
# [12] = system: ORYSAT (Rice, Tebonnet); assay: Postemergence herbicidal evaluation; type: in vivo, Oryza sativa, (L.) Tebonnet
# Procedure, shortened: as §2
# [13] = system: ORYSAT (Rice, Tebonnet); assay: Flooded paddy, post-transplant rice tolerance; type: in vivo, Oryza sativa, (L.) Tebonnet; conditions: flooded paddy, post-transplant rice, rated 3-4 weeks after treatment, 0-9 rating scale
# Procedure, shortened: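 Two ten-day-old seedlings were transplanted into silt loam, flooded and held at 1.5 to 3 cm water above the soil before herbicide treatment. Pots stayed in the greenhouse at that water level. Injury was scored visually on a 0-9 scale versus untreated control.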
# [14] = system: IPOHE (Ipomoea hederacea); assay: Preemergence herbicidal evaluation; type: in vivo, (L.) Jacq.; conditions: preemergence, rated 4-5 weeks after treatment
# [15] = system: CHEAL (Chenopodium album); assay: Preemergence herbicidal evaluation; type: in vivo, L.; conditions: preemergence, rated 4-5 weeks after treatment
# Procedure, shortened: (§3)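 Rating 0–9, visual, vs control; 4–5 wk after spraying seeded cups with compound in aq. acetone; conventional greenhouse care.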
# [16] = system: CASOB (Cassia obtusifolia); assay: Preemergence herbicidal evaluation; type: in vivo, L.; conditions: preemergence, rated 4-5 weeks after treatment
# Procedure, shortened: as §3
# [17] = system: AMBEL (Ambrosia artemisifolia); assay: Preemergence herbicidal evaluation; type: in vivo, L.; conditions: preemergence, rated 4-5 weeks after treatment
# Procedure, shortened: as §3
# [18] = system: GALAP (Galium aparine); assay: Postemergence herbicidal evaluation; type: in vivo
# Procedure, shortened: as §2
# [19] = system: SETVI (Setaria viridis); assay: Preemergence herbicidal evaluation; type: in vivo, (L.) Beau; conditions: preemergence, rated 4-5 weeks after treatment
# Procedure, shortened: as §3
# [20] = system: ECHCG (Echinochloa crus-galli); assay: Preemergence herbicidal evaluation; type: in vivo, (L.) Beau; conditions: preemergence, rated 4-5 weeks after treatment
# Procedure, shortened: as §3
compound,measurement,setting,value
"CN(C(=O)c1nsc2ccc(-n3c(=O)cc(C(F)(F)F)n(C)c3=O)cc12)c1ccc(Cl)cc1 [Compound 18, 1,2-benzisothiazole-3-carboxanilide, 4′-chloro-5-[3,6-dihydro-3-methyl-2,6-dioxo-4-(trifluoromethyl)-1(2H)-pyrimidinyl]-N-methyl-]","herbicidal rating, SAGPY",[1]; rate 0.0080 kg/ha,0.0
same,"herbicidal rating, SAGPY",[1]; rate 0.0320 kg/ha,1.5
same,"herbicidal rating, SAGPY",[1]; rate 0.1250 kg/ha,5.0
same,"Postemergence herbicidal rating, ECHCG",[2]; rate 0.0320 kg/ha,0.0
same,"Postemergence herbicidal rating, ECHCG",[2]; rate 0.0620 kg/ha,0.0
same,"Postemergence herbicidal rating, ECHCG",[2]; rate 0.1250 kg/ha,0.0
same,"Postemergence herbicidal rating, ECHCG",[2]; rate 0.2500 kg/ha,5.0
same,ORYSAT preemergence herbicidal rating,[3]; Rate 0.0620 kg/ha,0.0
same,ORYSAT preemergence herbicidal rating,[3]; Rate 0.1250 kg/ha,5.0
same,ORYSAT preemergence herbicidal rating,[3]; Rate 0.2500 kg/ha,8.0
same,"Postemergence herbicidal rating, SETVI",[4]; rate 0.0320 kg/ha,0.0
same,"Postemergence herbicidal rating, SETVI",[4]; rate 0.0620 kg/ha,0.0
same,"Postemergence herbicidal rating, SETVI",[4]; rate 0.1250 kg/ha,5.0
same,"Postemergence herbicidal rating, SETVI",[4]; rate 0.2500 kg/ha,9.0
same,"Postemergence herbicidal rating, IPOHE",[5]; rate 0.0320 kg/ha,9.0
same,"Postemergence herbicidal rating, IPOHE",[5]; rate 0.0620 kg/ha,9.0
same,"Postemergence herbicidal rating, IPOHE",[5]; rate 0.1250 kg/ha,9.0
same,"Postemergence herbicidal rating, IPOHE",[5]; rate 0.2500 kg/ha,9.0
same,"herbicidal rating, MOOVA",[6]; rate 0.0080 kg/ha,0.0
same,"herbicidal rating, MOOVA",[6]; rate 0.0320 kg/ha,9.0
same,"herbicidal rating, MOOVA",[6]; rate 0.1250 kg/ha,9.0
same,"Postemergence herbicidal rating, ABUTH",[7]; rate 0.0320 kg/ha,9.0
same,"Postemergence herbicidal rating, ABUTH",[7]; rate 0.0620 kg/ha,9.0
same,"Postemergence herbicidal rating, ABUTH",[7]; rate 0.1250 kg/ha,9.0
same,"Postemergence herbicidal rating, ABUTH",[7]; rate 0.2500 kg/ha,9.0
same,"herbicidal rating, CYPIR",[8]; rate 0.0080 kg/ha,0.0
same,"herbicidal rating, CYPIR",[8]; rate 0.0320 kg/ha,6.5
same,"herbicidal rating, CYPIR",[8]; rate 0.1250 kg/ha,7.5
same,"Postemergence herbicidal rating, ZEAMX",[9]; rate 0.0320 kg/ha,5.0
same,"Postemergence herbicidal rating, ZEAMX",[9]; rate 0.0620 kg/ha,5.0
same,"Postemergence herbicidal rating, ZEAMX",[9]; rate 0.1250 kg/ha,5.5
same,"Postemergence herbicidal rating, ZEAMX",[9]; rate 0.2500 kg/ha,7.0
same,"herbicidal rating, ECHORC",[10]; rate 0.0080 kg/ha,0.0
same,"herbicidal rating, ECHORC",[10]; rate 0.0320 kg/ha,6.0
same,"herbicidal rating, ECHORC",[10]; rate 0.1250 kg/ha,9.0
same,"Postemergence herbicidal rating, GLXMAW",[11]; rate 0.0320 kg/ha,6.0
same,"Postemergence herbicidal rating, GLXMAW",[11]; rate 0.0620 kg/ha,8.0
same,"Postemergence herbicidal rating, GLXMAW",[11]; rate 0.1250 kg/ha,8.0
same,"Postemergence herbicidal rating, GLXMAW",[11]; rate 0.2500 kg/ha,8.5
same,"Postemergence herbicidal rating, ORYSAT",[12]; rate 0.0320 kg/ha,2.0
same,"Postemergence herbicidal rating, ORYSAT",[12]; rate 0.0620 kg/ha,3.0
same,"Postemergence herbicidal rating, ORYSAT",[12]; rate 0.1250 kg/ha,5.0
same,"Postemergence herbicidal rating, ORYSAT",[12]; rate 0.2500 kg/ha,5.5
same,"herbicidal rating, ORYSAT (rice tolerance)",[13]; rate 0.0080 kg/ha,0.0
same,"herbicidal rating, ORYSAT (rice tolerance)",[13]; rate 0.0320 kg/ha,1.5
same,"herbicidal rating, ORYSAT (rice tolerance)",[13]; rate 0.1250 kg/ha,5.0
same,IPOHE preemergence herbicidal rating,[14]; Rate 0.0620 kg/ha,3.0
same,IPOHE preemergence herbicidal rating,[14]; Rate 0.1250 kg/ha,9.0
same,IPOHE preemergence herbicidal rating,[14]; Rate 0.2500 kg/ha,9.0
same,CHEAL preemergence herbicidal rating,[15]; Rate 0.0620 kg/ha,9.0
same,CHEAL preemergence herbicidal rating,[15]; Rate 0.1250 kg/ha,9.0
same,CHEAL preemergence herbicidal rating,[15]; Rate 0.2500 kg/ha,9.0
same,CASOB preemergence herbicidal rating,[16]; Rate 0.0620 kg/ha,0.0
same,CASOB preemergence herbicidal rating,[16]; Rate 0.1250 kg/ha,1.0
same,CASOB preemergence herbicidal rating,[16]; Rate 0.2500 kg/ha,1.0
same,AMBEL preemergence herbicidal rating,[17]; Rate 0.0620 kg/ha,7.0
same,AMBEL preemergence herbicidal rating,[17]; Rate 0.1250 kg/ha,9.0
same,AMBEL preemergence herbicidal rating,[17]; Rate 0.2500 kg/ha,9.0
same,"Postemergence herbicidal rating, GALAP",[18]; rate 0.0320 kg/ha,2.0
same,"Postemergence herbicidal rating, GALAP",[18]; rate 0.0620 kg/ha,4.0
same,"Postemergence herbicidal rating, GALAP",[18]; rate 0.1250 kg/ha,6.0
same,"Postemergence herbicidal rating, GALAP",[18]; rate 0.2500 kg/ha,9.0
same,SETVI preemergence herbicidal rating,[19]; Rate 0.0620 kg/ha,8.0
same,SETVI preemergence herbicidal rating,[19]; Rate 0.1250 kg/ha,9.0
same,SETVI preemergence herbicidal rating,[19]; Rate 0.2500 kg/ha,9.0
same,ECHCG preemergence herbicidal rating,[20]; Rate 0.0620 kg/ha,0.0
same,ECHCG preemergence herbicidal rating,[20]; Rate 0.1250 kg/ha,2.0
same,ECHCG preemergence herbicidal rating,[20]; Rate 0.2500 kg/ha,9.0
